Test results as given in article PMC10870720, “Lignin bioconversion based on genome mining for ligninolytic genes in Erwinia billingiae QL-Z3” (Biotechnology for Biofuels and Bioproducts, 2024).

Tested on: ELAC_205
Settings: laccase; sodium acetate buffer; optimum pH 1.0, 50 °C (kinetic assay conditions not stated separately)

## CCn1c(=NN=c2sc3cc(S(=O)(=O)O)ccc3n2CC)sc2cc(S(=O)(=O)O)ccc21 [ABTS, 2, 2’-azino-bis (3-ethylbenzothiazoline-6-sulfonic acid)]
  Km: 360 ± 70 µM
